{
  "source": "ChEMBL document CHEMBL1201862",
  "about": "“PubChem BioAssay data set” (2004)",
  "test_in_all_cases": "inhibition of tumour cell growth, NCI panel, 48 h",
  "key": {"COLO 205": {"test_system": "COLO 205"}, "SK-MEL-5": {"test_system": "SK-MEL-5"}, "NCI-H460": {"test_system": "NCI-H460"}, "SF-539": {"test_system": "SF-539"}, "LOX IMVI": {"test_system": "LOX IMVI"}, "ACHN": {"test_system": "ACHN"}, "MDA-N": {"test_system": "MDA-N"}, "DU-145": {"test_system": "DU-145"}, "HL-60": {"test_system": "HL-60"}, "A549": {"test_system": "A549"}, "UACC-62": {"test_system": "UACC-62"}, "M14": {"test_system": "M14"}, "SK-MEL-2": {"test_system": "SK-MEL-2"}, "IGROV-1": {"test_system": "IGROV-1"}, "SK-MEL-28": {"test_system": "SK-MEL-28"}, "PC-3": {"test_system": "PC-3"}, "HCT-15": {"test_system": "HCT-15"}, "786-0": {"test_system": "786-0"}, "UACC-257": {"test_system": "UACC-257"}, "SN12C": {"test_system": "SN12C"}, "CAKI-1": {"test_system": "CAKI-1"}, "OVCAR-5": {"test_system": "OVCAR-5"}, "KM12": {"test_system": "KM12"}, "TK-10": {"test_system": "TK-10"}, "UO-31": {"test_system": "UO-31"}, "MOLT-4": {"test_system": "MOLT-4"}, "A498": {"test_system": "A498"}, "OVCAR-8": {"test_system": "OVCAR-8"}, "HCT-116": {"test_system": "HCT-116"}, "NCI-H226": {"test_system": "NCI-H226"}, "RXF 393": {"test_system": "RXF 393"}, "HOP-62": {"test_system": "HOP-62"}, "SF-295": {"test_system": "SF-295"}, "BT-549": {"test_system": "BT-549"}, "SNB-19": {"test_system": "SNB-19"}, "MDA-MB-231": {"test_system": "MDA-MB-231"}, "MCF7": {"test_system": "MCF7"}, "OVCAR-3": {"test_system": "OVCAR-3"}, "HOP-92": {"test_system": "HOP-92"}, "EKVX": {"test_system": "EKVX"}, "OVCAR-4": {"test_system": "OVCAR-4"}, "Malme-3M": {"test_system": "Malme-3M"}, "HT-29": {"test_system": "HT-29"}, "SK-OV-3": {"test_system": "SK-OV-3"}, "SW-620": {"test_system": "SW-620"}, "Hs-578T": {"test_system": "Hs-578T"}, "SF-268": {"test_system": "SF-268"}, "SNB-75": {"test_system": "SNB-75"}, "NCI/ADR-RES": {"test_system": "NCI/ADR-RES"}, "HCC 2998": {"test_system": "HCC 2998"}, "CCRF-CEM": {"test_system": "CCRF-CEM"}},
  "note": "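Values below derive from 48-hour exposures of cells grown in 96-well plates, with endpoints linearly interpolated between the two concentrations bracketing the appropriate inhibition level. The concentration for 50% growth inhibition is given as GI50.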 Calls of active or inactive are those of the source. No stated cut-off is given here; in the data, active = GI50 up to about 1.1 µM and inactive = higher.",
  "data": [
    {"smiles": "COc1cccc(C2c3cc4c(cc3OC3COC(=O)C32)OCO4)c1OC", "note": "(stereo unspecified)", "values": [
      {"measurement": "GI50", "setting": "COLO 205", "value": "> 100 µM (inactive)"},
      {"measurement": "GI50", "setting": "SK-MEL-5", "value": "> 100 µM (inactive)"},
      {"measurement": "GI50", "setting": "NCI-H460", "value": "> 100 µM (inactive)"},
      {"measurement": "GI50", "setting": "SF-539", "value": "> 100 µM (inactive)"},
      {"measurement": "GI50", "setting": "LOX IMVI", "value": "> 100 µM (inactive)"},
      {"measurement": "GI50", "setting": "ACHN", "value": "> 100 µM (inactive)"},
      {"measurement": "GI50", "setting": "MDA-N", "value": "3.93 µM (inactive)"},
      {"measurement": "GI50", "setting": "DU-145", "value": "> 100 µM (inactive)"},
      {"measurement": "GI50", "setting": "HL-60", "value": "9.12 µM (inactive)"},
      {"measurement": "GI50", "setting": "A549", "value": "> 100 µM (inactive)"},
      {"measurement": "GI50", "setting": "UACC-62", "value": "68.2 µM (inactive)"},
      {"measurement": "GI50", "setting": "M14", "value": "> 100 µM (inactive)"},
      {"measurement": "GI50", "setting": "SK-MEL-2", "value": "49.4 µM (inactive)"},
      {"measurement": "GI50", "setting": "IGROV-1", "value": "> 100 µM (inactive)"},
      {"measurement": "GI50", "setting": "SK-MEL-28", "value": "> 100 µM (inactive)"},
      {"measurement": "GI50", "setting": "PC-3", "value": "> 100 µM (inactive)"},
      {"measurement": "GI50", "setting": "HCT-15", "value": 34.8, "unit": "µM"},
      {"measurement": "GI50", "setting": "786-0", "value": "> 100 µM (inactive)"},
      {"measurement": "GI50", "setting": "UACC-257", "value": "> 100 µM (inactive)"},
      {"measurement": "GI50", "setting": "SN12C", "value": "> 100 µM (inactive)"},
      {"measurement": "GI50", "setting": "CAKI-1", "value": "37.6 µM (inactive)"},
      {"measurement": "GI50", "setting": "OVCAR-5", "value": "> 100 µM (inactive)"},
      {"measurement": "GI50", "setting": "KM12", "value": "> 100 µM (inactive)"},
      {"measurement": "GI50", "setting": "TK-10", "value": "> 100 µM (inactive)"},
      {"measurement": "GI50", "setting": "UO-31", "value": "> 100 µM (inactive)"},
      {"measurement": "GI50", "setting": "MOLT-4", "value": "> 100 µM (inactive)"},
      {"measurement": "GI50", "setting": "A498", "value": "> 100 µM (inactive)"},
      {"measurement": "GI50", "setting": "OVCAR-8", "value": "> 100 µM (inactive)"},
      {"measurement": "GI50", "setting": "HCT-116", "value": "20.2 µM (inactive)"},
      {"measurement": "GI50", "setting": "NCI-H226", "value": "> 100 µM (inactive)"},
      {"measurement": "GI50", "setting": "RXF 393", "value": "83.4 µM (inactive)"},
      {"measurement": "GI50", "setting": "HOP-62", "value": "61.1 µM (inactive)"},
      {"measurement": "GI50", "setting": "SF-295", "value": "> 100 µM (inactive)"},
      {"measurement": "GI50", "setting": "BT-549", "value": "> 100 µM (inactive)"},
      {"measurement": "GI50", "setting": "SNB-19", "value": "> 100 µM (inactive)"},
      {"measurement": "GI50", "setting": "MDA-MB-231", "value": "> 100 µM (inactive)"},
      {"measurement": "GI50", "setting": "MCF7", "value": "83 µM (inactive)"},
      {"measurement": "GI50", "setting": "OVCAR-3", "value": "> 100 µM (inactive)"},
      {"measurement": "GI50", "setting": "HOP-92", "value": "99.8 µM (inactive)"},
      {"measurement": "GI50", "setting": "EKVX", "value": "> 100 µM (inactive)"},
      {"measurement": "GI50", "setting": "OVCAR-4", "value": "64.6 µM (inactive)"},
      {"measurement": "GI50", "setting": "Malme-3M", "value": "> 100 µM (inactive)"},
      {"measurement": "GI50", "setting": "HT-29", "value": "> 100 µM (inactive)"},
      {"measurement": "GI50", "setting": "SK-OV-3", "value": "57.8 µM (inactive)"},
      {"measurement": "GI50", "setting": "SW-620", "value": "> 100 µM (inactive)"},
      {"measurement": "GI50", "setting": "Hs-578T", "value": "32.7 µM (inactive)"},
      {"measurement": "GI50", "setting": "SF-268", "value": "> 100 µM (inactive)"},
      {"measurement": "GI50", "setting": "SNB-75", "value": "83.9 µM (inactive)"},
      {"measurement": "GI50", "setting": "NCI/ADR-RES", "value": "> 100 µM (inactive)"},
      {"measurement": "GI50", "setting": "HCC 2998", "value": "> 100 µM (inactive)"},
      {"measurement": "GI50", "setting": "CCRF-CEM", "value": "> 100 µM (inactive)"}
    ]}
  ]
}
